Among the data in ChEMBL document CHEMBL1125501, “Probes for narcotic receptor mediated phenomena. 18. Epimeric 6 alpha- and 6 beta-iodo-3,14-dihydroxy-17-(cyclopropylmethyl)-4,5 alpha-epoxymorphinans as potential ligands for opioid receptor single photon emission computed tomography: synthesis, evaluation, and radiochemistry of [125I]-6 …” (J Med Chem, 1992) are IC50 and Ki values, retold here.

Experiment [1] deals with T1, Mu-type opioid receptor (Rattus norvegicus, UniProt P33535). The experiment can be described thus: In vito concentration required to displace [3H]DAGO (Kd = 0.7 nM and concentration is […]) from opioid receptor mu in rat brain membranes. Type of experiment: cell membranes.
The target of experiment [2] is T2, Delta-type opioid receptor (Rattus norvegicus, UniProt P33533). The experiment can be described thus: In vito concentration required to displace [3H]DADLE (Kd = 12.2 nM and concentration is 2.1 nM) from low affinity delta-site in rat brain membranes. In kind it is cell membranes.
Experiment [3] addresses T2, Delta-type opioid receptor. The experiment can be described thus: In vito concentration required to displace [3H]-DADLE (Kd = 12.2 nM and concentration is 2.1 nM) from low affinity delta-site in rat brain membranes. In kind it is cell membranes.
For experiment [4], the target named is T1, Mu-type opioid receptor. Type of experiment: cell membranes, Brain, Brain membranes.
For experiment [5], the target named is T2, Delta-type opioid receptor. The experiment can be described thus: In vito concentration required to displace [3H]DADLE (Kd = […] and concentration is […]) from high affinity delta-site in rat brain membranes. In kind it is cell membranes.
The target in experiment [6] is T3, Kappa-type opioid receptor (Cavia porcellus, UniProt P41144). The experiment can be described thus: In vito concentration required to displace 9 (Kd = […] and concentration is 1.8 nM) from opioid receptor kappa 1 in guinea brain membranes. Type of experiment: cell membranes.
Experiment [7] addresses T3, Kappa-type opioid receptor. The experiment can be described thus: In vito concentration required to displace [3H]BRM (Kd = 1.0 nM and concentration is 1.8 nM) from opioid receptor kappa 2 in guinea brain membranes. Type of experiment: cell membranes.
Experiment [8] concerns the target T3, Kappa-type opioid receptor. The experiment can be described thus: In vito concentration required to displace [3H]-BRM (Kd = 1.0 nM and concentration is 1.8 nM) from opioid receptor kappa 2 in guinea brain membranes. Type of experiment: cell membranes.
The target of experiment [9] is T1, Mu-type opioid receptor. In kind it is cell membranes, Brain, Brain membranes. The source holds these as a separate data set.
Experiment [10] concerns the target T3, Kappa-type opioid receptor. The experiment can be described thus: In vito concentration required to displace 9 (Kd = […] and concentration is 1.8 nM) from opioid receptor kappa 2 in guinea brain membranes. Type of experiment: cell membranes.

T3 sequence (P41144 whole entry): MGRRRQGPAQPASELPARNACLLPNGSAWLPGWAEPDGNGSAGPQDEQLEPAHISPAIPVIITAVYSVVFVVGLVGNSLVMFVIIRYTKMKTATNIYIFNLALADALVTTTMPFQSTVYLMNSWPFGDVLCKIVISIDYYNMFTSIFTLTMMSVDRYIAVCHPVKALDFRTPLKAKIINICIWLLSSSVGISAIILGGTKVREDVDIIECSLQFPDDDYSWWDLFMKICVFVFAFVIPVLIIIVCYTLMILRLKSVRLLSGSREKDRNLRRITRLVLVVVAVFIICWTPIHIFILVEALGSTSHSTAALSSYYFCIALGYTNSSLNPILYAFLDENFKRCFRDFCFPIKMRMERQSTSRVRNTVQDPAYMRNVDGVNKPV
T2 sequence (P33533 whole entry): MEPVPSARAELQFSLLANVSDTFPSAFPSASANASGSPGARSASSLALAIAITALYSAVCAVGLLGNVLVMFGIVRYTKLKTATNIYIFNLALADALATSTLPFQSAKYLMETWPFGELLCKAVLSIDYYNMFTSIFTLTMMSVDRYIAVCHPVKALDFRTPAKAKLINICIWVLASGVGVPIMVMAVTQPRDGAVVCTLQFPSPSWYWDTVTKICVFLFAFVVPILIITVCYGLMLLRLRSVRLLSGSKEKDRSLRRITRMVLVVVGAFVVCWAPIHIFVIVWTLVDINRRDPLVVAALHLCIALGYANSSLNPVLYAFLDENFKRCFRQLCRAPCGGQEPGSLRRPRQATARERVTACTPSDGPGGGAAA
T1 sequence (P33535 whole entry): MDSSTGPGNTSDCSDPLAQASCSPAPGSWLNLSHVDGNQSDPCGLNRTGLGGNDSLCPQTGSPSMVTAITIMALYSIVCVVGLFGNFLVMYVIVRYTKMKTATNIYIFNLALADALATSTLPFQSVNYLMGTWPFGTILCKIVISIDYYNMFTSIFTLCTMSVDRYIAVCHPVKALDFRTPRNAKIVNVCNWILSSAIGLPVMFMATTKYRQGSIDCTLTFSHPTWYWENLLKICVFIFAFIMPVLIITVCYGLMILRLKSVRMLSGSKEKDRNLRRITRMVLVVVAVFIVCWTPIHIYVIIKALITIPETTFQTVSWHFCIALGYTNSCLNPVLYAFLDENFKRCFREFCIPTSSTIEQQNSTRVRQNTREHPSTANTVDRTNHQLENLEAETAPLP

Usually IC50 stands for the concentration at which inhibition is half-maximal. The low end stands for greater potency, the high end for weaker potency. In general, Ki refers to the equilibrium dissociation constant of an inhibitor or competing ligand from its target. As to `Oc1ccc2c3c1O[C@H]1[C@@H](Br)CC[C@@]4(O)[C@@H](C2)N(CC2CC2)CC[C@]314`, the IC50 on Mu-type opioid receptor [1] was 4.21 nM; in [3] it was 5.77 nM; in experiment [5], 4.3 nM; in experiment [6] it was 0.7 nM; in experiment [7], 20.2 nM; against Mu-type opioid receptor [9] it was 3.14 nM. For the same compound, the Ki on Mu-type opioid receptor [1] came to 1.23 nM; in experiment [2], 4.92 nM; on Mu-type opioid receptor [4], 1.19 nM; in experiment [5], 1.96 nM; in experiment [6] it was 0.32 nM; in [8], 7.21 nM.
With `Oc1ccc2c3c1O[C@H]1[C@@H](I)CC[C@@]4(O)[C@@H](C2)N(CC2CC2)CC[C@]314`, the Ki turned out to be 6.88 nM in experiment [2], 1.65 nM on Mu-type opioid receptor [4] and 8.46 nM in [8]. Further, the values for the IC50 (in experiment [3]; in experiment [7]; at Mu-type opioid receptor [9]) were 8.06 nM, 23.7 nM and 4.34 nM, respectively.
For `Oc1ccc2c3c1O[C@H]1[C@H](I)CC[C@@]4(O)[C@@H](C2)N(CC2CC2)CC[C@]314`, the Ki stood at 2.25 nM in [2], 2.73 nM in experiment [10] and 0.29 nM at Mu-type opioid receptor [4]. In addition, the IC50 in [3] was 2.64 nM; in [5] it was 25.6 nM; in experiment [7] it was 7.65 nM; at Mu-type opioid receptor [9] it was 0.77 nM.
As for `Oc1ccc2c3c1O[C@H]1[C@H](F)CC[C@@]4(O)[C@@H](C2)N(CC2CC2)CC[C@]314`, the IC50 on Mu-type opioid receptor [1] stood at 11.4 nM; in [3], 16.2 nM; in experiment [5], 268 nM; in experiment [7] it was 66 nM; on Mu-type opioid receptor [9], 8.98 nM. The Ki at Mu-type opioid receptor [1] is 3.32 nM; in experiment [2] it was 13.8 nM; at Mu-type opioid receptor [4] it was 3.42 nM; in experiment [5], 122 nM; in experiment [6] it was 3.71 nM.
